According to patent US8367328B2, “Method for synthesizing DNA” (Takara Bio Inc., priority 1998, dated 2013):

What was measured:
[1] = tested on: TaKaRa EX-Taq DNA Polymerase; test: LA-PCR with TaKaRa EX-Taq DNA Polymerase in the presence of acidic substances; type: biochemical; details: 10 kb fragment
Description: (1) The effects of the acidic substances were studied on LA-PCR method comprising a combination of DNA polymerase having 3′→5′ exonuclease activity, and DNA polymerase having no such activity. A reaction mixture comprising λDNA as a template, primers λ1 and λ8 as a primer pair was prepared, and PCR was carried out. In this PCR, TaKaRa EX-Taq DNA Polymerase (manufactured by Takara Shuzo Co., Ltd.) was used. The composition of the reaction mixture is as follows.
In the following example, PCR was carried out in Fast mode by using TaKaRa PCR Thermal Cycler Personal (manufactured by Takara Shuzo Co., Ltd.).
[…] Further, 1 ng of the sulfated-fucose-containing polysaccharide-F or 0.5 μg of sodium alginate was respectively added to the above reaction mixture.
[…] After the termination of the reaction, 5 μl of the resulting reaction mixture was subjected to electrophoresis on 1% agarose gel containing ethidium bromide in an amount of 0.00005%, whereby an amplified fragment was confirmed.
Further, PCR was carried out for a reaction having the same composition as the above reaction mixture except for using 100 pg of λDNA as template DNA, and adding 0.25 μg of sodium alginate or 1 ng of the sulfated-fucose-containing polysaccharide-F as an acidic substance.
The reaction was carried out in 29 cycles, wherein one cycle of reaction comprises a process consisting of 98° C., 5 seconds—68° C., 3 minutes. […]

[2] = tested on: Pfu DNA Polymerase I and Pfu DNA Polymerase II; test: PCR with Pfu DNA Polymerase I plus Pfu DNA Polymerase II in the presence of acidic substances; type: biochemical, Pyrococcus furiosus; details: commercially available sodium alginate, 100 to 1000 centipoises; Example 12 conditions
Description: Using λDNA as a template, and each of primers λ1 and λ3, primers λ1 and λ4, or primers λ1 and λ5 as a primer pair, the reaction mixture having the following composition was prepared.
Composition of Reaction Mixture: 10 mM Tris-hydrochloric acid (pH 9.2), 75 mM potassium chloride, 6 mM magnesium chloride, 0.4 mM each of dATP, dCTP, dGTP and dTTP, 0.01% BSA, 1.25 U of Pfu DNA Polymerase I and 1.25 U of Pfu DNA Polymerase II, 500 pg of λDNA, and 5 pmol each of the primers, 5 ng or 50 ng of sulfated-fucose-containing polysaccharide-F (a final volume being 25 μl). In addition, as a control, one without addition of sulfated-fucose-containing polysaccharide-F was prepared.
The reaction in 30 cycles was carried out for each of these reaction mixtures, wherein one cycle of reaction comprises a process consisting of 98° C., 0 seconds—68° C., 0 seconds. Thereafter, 5 μl of the resulting reaction mixture was subjected to electrophoresis on 1% agarose gel containing ethidium bromide in an amount of 0.00005%, whereby an amplified fragment was confirmed.
PCR was carried out by using in combination Pfu DNA Polymerase II obtained in Example 1 and Pfu DNA Polymerase I (manufactured by Stratagene), which is α-type DNA polymerase, and sodium alginate, which is an acidic substance.
A reaction mixture comprising λDNA as a template, primers λ1 and λ3 as a primer pair was prepared, and PCR was carried out. […]

Substance: sodium alginate
- Amplification Results ([1]; template DNA 10 pg, primers λ1/λ8, 27 cycles 98°C 5 s–68°C 3 min, amount added 0.5 μg): ++ (Intensive amplification being observed)
- Amplification Results ([1]; template DNA 100 pg, primers λ1/λ8, 29 cycles 98°C 5 s–68°C 3 min, amount added 0.25 μg): ++ (Intensive amplification being observed)
- Amplification efficiency for DNA synthesis, sodium alginate of each viscosity [2]: completely the same improvements
